Here are results for 2 compounds from patent publication US20240299457A1, “METHODS FOR TREATING DISEASE ASSOCIATED WITH SENESCENCE” (Steadman Philippon Research Institute, priority 2019, published 2024).

Data set [1] concerns low passage (<p4) ADSCs. The experiment in a line: CellTiter 96 AQueous Cell Proliferation Assay (cell toxicity). It counts as cell-based, human. Here is the method: Banked ADSCs isolated from person three, person four, person two, and person one were purchased and cultured with normal growth media (DMEM/F:12, 10% FBS, and 1% penicillin/streptomycin).
Fisetin was added to growth media and treated on cells for 24 hours. Following treatment, the media was changed to normal growth media for 24 hours before being used for cell toxicity, immunofluorescence, or flow cytometry.
The CellTiter 96® AQueous Cell Proliferation Assay was used to determine the toxicity of 50 μM, 25 μM, and 1 μM Fisetin on low passage (<p4) cells. Cells were seeded at 40,000 cells/well in a 12-well plate. After adhering overnight, the cells were treated with 50 μM, 25 μM, and 1 μM of Fisetin for 24 hours. After treatment, the media was changed back to normal growth media for another 24 hours. The cells were then treated with the CellTiter 96 AQueous Cell Proliferation Assay following the manufacturer's protocol. Values are relative to untreated, control cells.

Data set [2] has as its system C12FDG+ T-Cells. The data set is described as follows: Bright and dim C12FDG+ T-cells in five patients treated with Fisetin. It counts as in vivo, human. The procedure: A certified phlebotomist used a 19-gauge butterfly needle to perform a standard venipuncture from the antecubital (AC) area, forearm or hand vein. Approximately 35 mL of blood was drawn into one 30 cc syringe (with ACD-A) and one 5 cc (without ACD-A) syringe. […] For total PBMCs and enriched T-Cells, SepMate™ tubes (Stem Cell Technologies) were used following manufactures protocol with Lymphoprep™ (Stem Cell Technologies) gradient centrifugation. Specifically, in separate tubes, CD3+ T-Cells were enriched using the RosetteSep™ commercial kit following manufactures instructions (Stem Cell Technologies #15021). A portion of cells (enriched T-cells and total PBMCs) were stained with 30 μM C12FDG in general culture media supplemented with 10% FBS and analyzed with flow cytometry (Guava EasyCyte, Luminex). To assess the percent, number, and concentration (cell/ml) of senescent CD3+ T-cells and PBMCs, settings were adjusted first using an unstained control (i.e., cells not treated with C12FDG). First, thresholds were set for FSC and SSC to catch cellular events. Next the green channel gain controls were set so that the background events fall between the 1st and second decade. […] Samples were ran in triplicate with water-only runs every 5 wells. Five patients with an age range from 56-77 years were treated with Fisetin at 100 mg/day for 30-45 days.

The subject of data set [3] is Zmpste24−/− mice. The experiment in a line: Transcript levels of senescence marker and SASP factors in tissues of Z24−/− mice. It counts as in vivo, mouse. The following applies: 100 mg/kg weekly. The procedure:
(§1) Adult progeroid Z24−/− mice were administered senolytic drugs via oral gavage (150 μl volume) starting at 2.5 to 3.0 months of age. D/Q (5 mg/kg: 50 mg/kg in 10% PEG400/5.0% DMSO) was given as a single dose at 2.5 months or multi-dose at 2.5, 3.0, 3.5, 4.0, 4.5, and 5.0 months. Both single and multi-dose DQ mice were sacrificed at 5 months. FIS (100 mg/kg in 90% PEG400/10.0% ethanol) treated mice were given a total of 4 weekly doses of drug starting at 3.0 months of age, then sacrificed at 4.0 months of age. For 17-DMAG treatments (10 mg/kg, 1% DMSO-PBS), mice were treated 3 times per week starting at 2 months of age then sacrificed at 4 months of age.
(§2) Z24−/−mice were treated with Fisetin weekly for 4 weeks (100 mg/kg) starting at 3 months of age then sacrificed at 4 months of age. 4 months was chosen as a sacrifice time (versus 5 months) given the more advanced pathology that occurred at 5 months, a time when therapies might have negligible effects like seen in D+Q treated animals.

Data set [4] concerns senescent ADSCs (β-galactosidase, C12FDG). The experiment in a line: C12FDG staining of senescence-associated β-galactosidase with flow cytometry in culture-expanded ADSCs. The class given is cell-based, human. The procedure:
Cells were treated with 100 nM of bafilomycin A1 for 1 hour at 37° C. and 5% CO2. Next, 33 μM C12FDG was added and incubated for 2 hours. Thus, cells were stained with the fluorescent senescence-associated marker C12FDG, collected, and tested for senescence using flow cytometry after 50 μM Fisetin treatment. 3 replicates were used per treatment. The InCyte software was used, and fluorescent gating was determined using unstained control cells.
To determine Fisetin's senolytic ability in vitro, based on the data from the preceding example, the 50 μM Fisetin concentration was used to treat YF and OF cells. Senescent cells were quantified by immunofluorescence using ? -H2AX and H3K9. Similarly, YM and OM cells were quantified using C12FDG for flow cytometry. C12FDG reacts with beta-galactosidase, a biomarker for senescence, to produce a fluorogenic substrate to be detected and quantified by flow cytometry.
Cells were seeded in triplicate for each group using previously described culture methods and seeding densities. After adhering overnight, the media was changed. […] After culturing in normal growth media for another 24 hours, the media was collected for SASP quantification or the cells were processed for C12FDG or SAHF staining, as described in the preceding example.
Background: A flow cytometer gives signals particle by particle.

In data set [5] the test system is mice OA models. The following applies: cited from earlier work.
The subject of data set [6] is senescence-associated heterochromatin foci (SAHF) in ADSCs. The data set is described as follows: Immunofluorescence of senescence-associated heterochromatin foci (H3K9, γ-H2AX) in ADSCs. It counts as cell-based, human. To be noted: 50 μM Fisetin. The procedure: Specifically, the cells were maintained in T-75 culture flasks using normal growth media (DMEM:F-12 with 10% FBS and 1% penicillin/streptomycin). At 70-90% confluency, the cells were passaged and reseeded in the flasks at a 1:4 dilution. At their respective testing passage number, cells were plated into chamber slides for SAHF staining at a density of 5,000 cells/cm^2. Cells were seeded in triplicate for each group and incubated to adhere overnight. The following day, cells were fixed with cold 4% paraformaldehyde and stained with the H2AX antibody using a 1:150 dilution and the H3K9 antibody using a 1:250 dilution. DAPI was also used to stain the nuclei. Five images per well and three wells per group were imaged using the Nikon Eclipse Ni-U microscope. Cells positive for the H2AX and H3K9 antibodies were quantified using the ImageJ software.
Each cell type was given 3 replicate wells, and each well was imaged 6 times, for a total of 18 images per group. Using an Image J program, the number of cells positive for each marker was quantified.
To determine Fisetin's senolytic ability in vitro, based on the data from the preceding example, the 50 μM Fisetin concentration was used to treat YF and OF cells. Senescent cells were quantified by immunofluorescence using ? -H2AX and H3K9. Similarly, YM and OM cells were quantified using C12FDG for flow cytometry. […]

Data set [7] concerns SASP factors IL-6, IL-8, MCP-1. The data set is described as follows: SASP factor quantification in ADSC culture media (Milliplex). To be noted: after Fisetin treatment, media 24 hours. It counts as cell-based, human. The procedure:
For SASP detection, the media were collected after incubating with the cells for 24 hours, centrifuged at 2,000×g for ten minutes, transferred to new microcentrifuge tubes, and stored at −80° C. until testing. The Human Adipocyte Milliplex kit using the EMD Millipore Milliplex instrument was used to quantify the SASPs.
Cells were seeded in triplicate for each group using previously described culture methods and seeding densities. After adhering overnight, the media was changed. For the untreated group normal ADSC growth media was used (DMEM:F-12 with 10% FBS and 1% penicillin/streptomycin), and for the treated group 50 μM Fisetin was added. Cells were treated for 24-hours, after which the media was changed back to normal growth media for all groups. After culturing in normal growth media for another 24 hours, the media was collected for SASP quantification or the cells were processed for C12FDG or SAHF staining, as described in the preceding example.
Within the R1 region of FIGS. 4B-4D, cells positive for C12FDG are noted by their respective peaks. […] In all groups, a decrease was indicated. […] 3 replicates were used for each treatment. (FIG. 6).

For data set [8], the system named is Zmpste24−/− mice. The experiment in a line: Micro-CT analysis of bone in progeroid Z24−/− mice given senolytic drugs. The class given is in vivo, mouse. The procedure:
as §1
For Fisetin treatments, mice were imaged using the explore Locus Utra Pre-Clinical CT Scanner (GE Healthcare, London, ON) through the pre-Clinical CT Core Facility with the following acquisition settings: 140 kVp, 22 mA with 16 s rotation/exposure. Non-cardiac gated CT images were acquired at all-time points. Simple back projections were obtained from the […] image reconstruction and exported as DICOM images. Image analysis was performed using the OsiriX software. Qualitative analysis of the bones was performed in 2D and 3D reconstructions using OsiriX. MicroView imaging software was also used for the quantitative analysis of the bone mineral density.
as §2

For data set [9], the system named is senescent CD3+ T-cells. The data set is described as follows: Senescent peripheral blood CD3+ T-cells before and after oral Fisetin, C12FDG flow cytometry (person). To be noted: CD3+ cells after Fisetin treatment, 100 mg per day for 45 days. The class given is in vivo, human. The procedure: Whole blood was collected from a subject into 50 ml Syringe containing ACD-A and set on a rocker. SepMate tubes (Stem Cell Technologies) were prepared with 15 ml Lymphoprep in a sterile environment. 10 ml whole blood were aliquoted into 50 ml conical tubes. 500 μl (50 μl/ml) RosetteSep (Stem Cell Technologies) was added to 10 mL sample of blood. For other blood samples, total PBMCs were collected as described below without T-cell enrichment for comparison. The mixture was incubated 10 min at room temperature (RT). An equal volume dilution medium (DM-sterile PBS and 2% FBS) was added to the sample and mixed gently. The diluted sample was slowly added to the SepMate tube containing Lymphoprep density gradient medium. The mixture was centrifuged at 1200×g for 10 minutes, brake on. The enriched cells were collected by pouring supernatant into a new tube. […]
Senescent cells were treated with Fisetin and then further characterized using flow cytometry (as described in Example 4, above). Peripheral Blood CD3+ T-cells from a person before & after Fisetin treatment (100 mg per day for 45 days) were evaluated for senescence and for senescent cell populations. Before treatment, the subject measured about 29% senescent cells, and after treatment, the subject measured about 4% senescent cells (data not shown).

The conditions of data set [10]: Losartan administration; cited from earlier work.
Where [11] appears, read: treated versus untreated Z24−/− mice.

Molecules are shown by their SMILES. “Also recorded” adds a separate entry of the source.

For `O=c1c(O)c(-c2ccc(O)c(O)c2)oc2cc(O)ccc12` [Fisetin, 2-(3,4-dihydroxyphenyl)-3,7-dihydroxychromen-4-one], the “toxicity to the health of low passage ADSCs” value in [1] (50 μM) is “not toxic”. In data set [1] (50 μM, 25 μM, 1 μM, YF, OF, YM, OM, relative to untreated control cells), the “percentage of viable cells among treatments” value is reported as “no significant difference”. The “toxicity to ADSCs” value in data set [1] (1-50 μM, 24 hours treatment) is reported as “non-toxic”. In addition, in [1] (Fisetin exposure), the “ADSC viability and proliferation” value was “not hindered”. In [2] (100 mg/day for 30-45 days), the “reduction in the percent of C12FDG+ cells (dim, early stage)” value is reported as 1-2 fold. For the same compound, in [2] (P19, treated/post-treated), the “bright cells, mean” value is 1.15% and the “dim cells, mean” value was found to be 26.70%. For the same compound, in data set [2] (P50, treated/post-treated), the “bright cells, mean” value was determined as 0.60% and the “dim cells, mean” value turned out to be 27.55%. The “reduction in bright C12FDG+ T-cells” value in [2] (patients with high baseline bright cells, 100 mg/day for 30-45 days) is 10-20 fold. In addition, in data set [3], the “transcript levels of IL-6” value is given as “reduced”, the “transcript levels of TGF-β” value was “reduced” and the “transcript levels of p16INK4a” value is “reduced”. Also, the “% cells positive for C12FDG (senescence)” value in data set [4] (50 μM Fisetin, 24 hours, passages 6, 8, 10) is “significantly reduced; also recorded: reduced at every passage”. The “count of the peak representing senescent cells (histogram)” value in [4] (cells treated with 50 μM Fisetin) is on record as “about 20”. For the same compound, in data set [5], the cartilage destruction entry is “decreased”, the “subchondral bone plate thickness” value is listed as “decreased” and the synovitis result is recorded as “relieved”. In data set [6] (OF and YF cells, passages 4 and 18), the “number of cells positive for H3K9” value is listed as “significantly reduced in all groups”. Moreover, the γ-H2AX positive cells result in data set [6] (low passage OF, low passage YF, high passage YF cells) was “reduced”. Moreover, in [7], the IL-6 concentration entry is listed as “decrease”, the IL-8 concentration entry is listed as “decrease” and the MCP-1 concentration result is “decrease”. In data set [8] (100 mg/kg weekly for 4 weeks from 3 months of age, micro-CT), the bone density loss entry was “significantly attenuate”. The “protective effects in bone” value in [8] (Z24−/− mice, oral gavage) was “effective”. In data set [8] (setting [11]), the “Hounsfield unit (HU) intensity” value is “Significant higher scores”, the “bone mineral density (BMD)” value was “Significant higher scores” and the “specific bone surface (BS/BV)” value is “Significant higher scores”. In data set [9], the Senescent cell concentration is recorded as 7397 +/− 3191 cells/mL and the Total senescent cells was 191 +/− 73.

Consider `CCCCc1nc(Cl)c(CO)n1Cc1ccc(-c2ccccc2-c2nn[nH]n2)cc1` [Losartan], for which the “microfracture for cartilage repair” value in data set [10] is “enhance”.
